Test results as given in patent US20070128217A1 (priority 2003, published 2007).

How the values were obtained:
[1] = tested on: recombinant human anti-SARS-CoV antibody 03-018; assay type: binding; design: Binding of antibody 03-018 to linear peptides of the N protein of SARS-CoV Urbani / Binding of antibody 03-018 to looped/cyclic peptides of the N protein of SARS-CoV Urbani: unit not given here
[2] = tested on: rabbit serum obtained by immunizing a rabbit with the SARS-CoV strain Frankfurt 1; assay type: binding; design: Binding of a rabbit serum to linear peptides / Binding of a rabbit serum to looped peptides / Rabbit serum linear peptides / Rabbit serum looped peptides / Binding of a rabbit serum to linear peptides of protein N of SARS-CoV Urbani (Rabbit serum linear peptides) / Binding of a rabbit serum to looped/cyclic peptides of protein N of SARS-CoV Urbani (Rabbit serum looped peptides): unit not given here
[3] = tested on: antibodies in sera from SARS patients (sera 1a, 1b, 2, 6, 37, 62, London, SARS-yellow, SARS-green); assay type: binding, human; design: Binding of serum 6 to linear peptides of protein X1 of SARS-CoV Urbani / Binding of serum 37 to linear peptides of protein X1 of SARS-CoV Urbani / Binding of serum 6 to looped/cyclic peptide (PEPSCAN-ELISA) / Binding of serum 37 to looped/cyclic peptide (PEPSCAN-ELISA) / Binding of serum 37 to looped/cyclic peptides of protein X1 of SARS-CoV Urbani / Binding of serum 6 to linear peptides of protein X2 / Binding of serum 37 to linear peptides of protein X2 / Binding of serum 37 to looped/cyclic peptides of protein X2 of SARS-CoV Urbani / Binding of serum 6 to linear peptides of protein M of SARS-CoV Urbani / Binding of serum 37 to linear peptides of protein M of SARS-CoV Urbani / Binding of serum 6 to looped/cyclic peptides of protein M of SARS-CoV Urbani / Binding of serum 37 to looped/cyclic peptides of protein M of SARS-CoV Urbani / Binding of serum 6 to linear peptides of protein X3 of SARS-CoV Urbani / Binding of serum 37 to linear peptides of protein X3 of SARS-CoV Urbani / Binding of serum 37 to looped/cyclic peptides of protein X3 of SARS-CoV Urbani / Binding of serum 6 to linear peptides of protein X4 of SARS-CoV Urbani / Binding of serum 37 to linear peptides of protein X4 of SARS-CoV Urbani / Binding of serum 37 to looped/cyclic peptides of protein X4 of SARS-CoV Urbani / Binding of serum 6 to linear peptides of protein X5 of SARS-CoV Urbani / Binding of serum 37 to linear peptides of protein X5 of SARS-CoV Urbani / Binding of serum 37 to looped/cyclic peptides of protein X5 of SARS-CoV Urbani / Binding of serum 6 to linear peptides of protein N of SARS-CoV Urbani / Binding of serum 37 to linear peptides of protein N of SARS-CoV Urbani / Binding of serum 6 to linear peptide (PEPSCAN-ELISA) / Binding of serum 1a to looped/cyclic peptides of protein N of SARS-CoV Urbani / Binding of serum 1b to looped/cyclic peptides of protein N of SARS-CoV Urbani / Binding of serum 2 to looped/cyclic peptides of protein N of SARS-CoV Urbani / Binding of serum 6 to looped/cyclic peptides of protein N of SARS-CoV Urbani / Binding of serum 37 to looped/cyclic peptides of protein N of SARS-CoV Urbani / Binding of serum 62 to looped/cyclic peptides of protein N of SARS-CoV Urbani / Binding of serum London to looped/cyclic peptides of protein N of SARS-CoV Urbani / Binding of serum SARS-green to looped/cyclic peptides of protein N of SARS-CoV Urbani: unit not given here
[4] = tested on: control sera (pooled serum of ten healthy LUMC hospital workers; commercial negative donor pooled serum from the Dutch bloodbank); assay type: binding, human; design: Binding of Control serum LUMC to linear peptides / Binding of Control serum Blood-bank to linear peptides / Binding of Control serum LUMC to looped peptides / Binding of Control Serum Blood-Bank to Looped peptides / Binding of Control serum LUMC to linear peptides of the protein M of SARS-CoV Urbani / Binding of Control serum Blood-bank to linear peptides of the protein M of SARS-CoV Urbani / Binding of Control serum LUMC to looped peptides of the protein M of SARS-CoV Urbani / Binding of Control Serum Blood-Bank to Looped peptides of the protein M of SARS-CoV Urbani: unit not given here

Sequence	Binding of antibody 03-018 to linear peptides of the N protein of SARS-CoV Urbani [1]	Binding of antibody 03-018 to looped/cyclic peptides of the N protein of SARS-CoV Urbani [1]	Binding of a rabbit serum to linear peptides of protein N of SARS-CoV Urbani (Rabbit serum linear peptides) [2]	Binding of a rabbit serum to looped/cyclic peptides of protein N of SARS-CoV Urbani (Rabbit serum looped peptides) [2]	Binding of serum 1a to linear peptides of protein N of SARS-CoV Urbani [3]	Binding of serum 1a to looped/cyclic peptides of protein N of SARS-CoV Urbani [3]	Binding of serum 1b to linear peptides of protein N of SARS-CoV Urbani [3]	Binding of serum 1b to looped/cyclic peptides of protein N of SARS-CoV Urbani [3]	Binding of serum 2 to linear peptides of protein N of SARS-CoV Urbani [3]	Binding of serum 2 to looped/cyclic peptides of protein N of SARS-CoV Urbani [3]	Binding of serum 6 to linear peptides of protein N of SARS-CoV Urbani [3]	Binding of serum 6 to looped/cyclic peptides of protein N of SARS-CoV Urbani [3]	Binding of serum 37 to linear peptides of protein N of SARS-CoV Urbani [3]	Binding of serum 37 to looped/cyclic peptides of protein N of SARS-CoV Urbani [3]	Binding of serum 62 to linear peptides of protein N of SARS-CoV Urbani [3]	Binding of serum 62 to looped/cyclic peptides of protein N of SARS-CoV Urbani [3]	Binding of serum London to linear peptides of protein N of SARS-CoV Urbani [3]	Binding of serum London to looped/cyclic peptides of protein N of SARS-CoV Urbani [3]	Binding of serum SARS-green to linear peptides of protein N of SARS-CoV Urbani [3]	Binding of serum SARS-green to looped/cyclic peptides of protein N of SARS-CoV Urbani [3]	also measured
IVWVATEGALNTPKD	0.1	0.2	0.1	0.2	0.2	0.3	0.1	0.2	0.2	0.3	0.2	0.1	0.7	0.5	0.7	0.3	0.6	0.3	0.3	0.9	Binding of serum SARS-yellow to linear peptides of protein N of SARS-CoV Urbani [3]: 0.6; Binding of serum SARS-yellow to looped/cyclic peptides of protein N of SARS-CoV Urbani [3]: 0.2; Binding of Control Serum Blood-Bank to Looped peptides [4]: 0.4; Binding of Control serum Blood-bank to linear peptides [4]: 0.8; Binding of Control serum LUMC to linear peptides [4]: 0.8; Binding of Control serum LUMC to looped peptides [4]: 0.5
KEGIVWVATEGALNT	0.1	0.2	0.1	0.4	0.2	0.3	0.1	0.2	0.2	0.4	0.2	0.2	0.7	0.6	0.6	0.5	0.4	0.4	0.5	0.3	Binding of serum SARS-yellow to linear peptides of protein N of SARS-CoV Urbani [3]: 0.7; Binding of serum SARS-yellow to looped/cyclic peptides of protein N of SARS-CoV Urbani [3]: 0.5; Binding of Control Serum Blood-Bank to Looped peptides [4]: 0.6; Binding of Control serum Blood-bank to linear peptides [4]: 0.7; Binding of Control serum LUMC to linear peptides [4]: 0.6; Binding of Control serum LUMC to looped peptides [4]: 0.7
